Counter-ions that a name gives are not always drawn. Like-named read-outs stand apart in the source and are kept apart here.
Tests used:
[1] = system: eyes of patients with pupil size in dim light of greater than 7 mm; test: Example 2 clinical study: monocular high contrast visual acuity under photopic conditions (100% tint chart); format: in vivo, humans
Method: (§1) Sixteen patients were randomized into four groups (of four subjects each). Each group was treated on three successive study visits separated by at least 4 days with one drop of ophthalmic oxymetazoline solution (Visine LR®) in each eye followed by one drop test article in each eye. The test article was a 0.2% (w/v) phentolamine mesylate solution, 0.4% (w/v) phentolamine mesylate solution, 0.8% (w/v) phentolamine mesylate solution, or placebo. Test articles contained the designed amount of phentolamine mesylate in a solution of Tears Naturale II® (from Alcon Labs). Placebo was just Tears Naturale II® (from Alcon Labs). Tears Naturale II® (from Alcon Labs) contains Dextran 70 (0.1% by weight), Hydroxypropyl Methylcellulose 2910 (0.3% by weight), Polyquarternium-1 (0.001% by weight), potassium chloride, water (purified), sodium borate, sodium chloride, and hydrochloric acid and/or sodium hydroxide as necessary to adjust the pH. The patients' eye redness and pupil diameters were recorded at baseline (i.e., prior to treatment administration), and at 30 minutes, 1 hour, 2 hours, 4 hours, and 8 hours after administration of test articles. The incidence of any treatment-emergent adverse events was also recorded. Total study duration was approximately nine hours.
(§2) Eye redness of patients' eyes was evaluated by the research assistant and recorded as a single integer of value 0 (no redness) to 4 (extreme redness) at baseline and each time point after treatment. Pupil diameters were measured to within 0.1 mm for each eye at baseline and each subsequent time point using a NeurOptics™ pupilometer. Monocular high contrast visual acuity was measured for each eye under photopic conditions at baseline and each subsequent time point in a darkened room using a Precision Vision™ High Contrast (100% tint) Visual Acuity Chart (Catalog #2102) backlit by the Precision Vision Illumination Box. Monocular low contrast visual acuity was measured for each eye under photopic conditions at baseline and each subsequent time point in a darkened room using a Precision Vision™ Low Contrast (5% tint) Visual Acuity Chart (Catalog #2186) backlit by the Precision Vision Illumination Box. Effect of treatment on glare was assessed using an experimental test method consisting of a panel with a high wattage central light emitting diode (LED) and a set of 7 lower wattage red LEDs radiating horizontally and vertically from the central light.
Comparisons of changes in mean values within treatment groups were tested for significance using two-tailed paired two sample t-tests with a threshold for significance set at p<0.01 (Bonferroni Correction for multiple paired t-tests). Differences between treatment groups with respect to mean values for pupil size over the course of the study were tested for significance using repeated measure ANOVA (which discards data from subjects lacking any data points). Differences in mean eye redness between treatment groups were evaluated using Kruskal-Wallis nonparametric testing. Differences in means between treatment groups at individual time points were tested for significance using one-way ANOVA.

[2] = system: eyes of patients with pupil size in dim light of greater than 7 mm; design: species or system humans; conditions: human, in vivo
Method: as §1, §2
Comparisons of changes in mean values within treatment groups were tested for significance using two-tailed paired two sample t-tests with a threshold for significance set at p<0.01 (Bonferroni Correction for multiple paired t-tests). […] Differences in mean eye redness between treatment groups were evaluated using Kruskal-Wallis nonparametric testing. […]

[3] = 0.2% (w/v) solution, 30 min after treatment
[4] = 0.2% (w/v) solution, 1 hour after treatment
[5] = 0.2% (w/v) solution, 2 hours after treatment
[6] = 0.2% (w/v) solution, 4 hours after treatment
[7] = 0.2% (w/v) solution, 8 hours after treatment
[8] = 0.2% (w/v) solution, Baseline, prior to treatment
[9] = 0.4% (w/v) solution, 30 min after treatment
[10] = 0.4% (w/v) solution, 1 hour after treatment
[11] = 0.4% (w/v) solution, 2 hours after treatment
[12] = 0.4% (w/v) solution, 4 hours after treatment
[13] = 0.4% (w/v) solution, 8 hours after treatment
[14] = 0.4% (w/v) solution, Baseline, prior to treatment
[15] = 0.8% (w/v) solution, 30 min after treatment
[16] = 0.8% (w/v) solution, 1 hour after treatment
[17] = 0.8% (w/v) solution, 2 hours after treatment
[18] = 0.8% (w/v) solution, 4 hours after treatment
[19] = 0.8% (w/v) solution, 8 hours after treatment
[20] = 0.8% (w/v) solution, Baseline, prior to treatment

- Range of eye redness scores [2]: 0-1
- eye redness [2]: modest increase in eye redness
- mean eye redness versus placebo [2]: did not differ from placebo
- Range of eye redness scores ([2]; 30 min): 0-1
SMILES: Cc1ccc(N(CC2=NCCN2)c2cccc(O)c2)cc1 [Phentolamine Mesylate, phentolamine mesylate]
- Maximum high contrast visual acuity [1, 3]: 0.22 LogMar
- Mean high contrast visual acuity [1, 3]: 0.05 LogMar
- Minimum high contrast visual acuity [1, 3]: −0.32 LogMar
- Maximum high contrast visual acuity [1, 4]: 0.22 LogMar
- Mean high contrast visual acuity [1, 4]: 0.08 LogMar
- Minimum high contrast visual acuity [1, 4]: −0.20 LogMar
- Maximum high contrast visual acuity [1, 5]: 0.26 LogMar
- Mean high contrast visual acuity [1, 5]: 0.08 LogMar
- Minimum high contrast visual acuity [1, 5]: −0.22 LogMar
- Maximum high contrast visual acuity [1, 6]: 0.22 LogMar
- Mean high contrast visual acuity [1, 6]: 0.09 LogMar
- Minimum high contrast visual acuity [1, 6]: −0.20 LogMar
- Maximum high contrast visual acuity [1, 7]: 0.22 LogMar
- Mean high contrast visual acuity [1, 7]: 0.08 LogMar
- Minimum high contrast visual acuity [1, 7]: −0.32 LogMar
- Maximum high contrast visual acuity [1, 8]: 0.22 LogMar
- Mean high contrast visual acuity [1, 8]: 0.04 LogMar
- Minimum high contrast visual acuity [1, 8]: −0.32 LogMar
- Maximum high contrast visual acuity [1, 9]: 0.22 LogMar
- Mean high contrast visual acuity [1, 9]: 0.12 LogMar
- Minimum high contrast visual acuity [1, 9]: −0.20 LogMar
- Maximum high contrast visual acuity [1, 10]: 0.26 LogMar
- Mean high contrast visual acuity [1, 10]: 0.11 LogMar
- Minimum high contrast visual acuity [1, 10]: −0.20 LogMar
- Maximum high contrast visual acuity [1, 11]: 0.30 LogMar
- Mean high contrast visual acuity [1, 11]: 0.14 LogMar
- Minimum high contrast visual acuity [1, 11]: −0.10 LogMar
- Maximum high contrast visual acuity [1, 12]: 0.30 LogMar
- Mean high contrast visual acuity [1, 12]: 0.15 LogMar
- Minimum high contrast visual acuity [1, 12]: −0.11 LogMar
- Maximum high contrast visual acuity [1, 13]: 0.30 LogMar
- Mean high contrast visual acuity [1, 13]: 0.13 LogMar
- Minimum high contrast visual acuity [1, 13]: −0.18 LogMar
- Maximum high contrast visual acuity [1, 14]: 0.22 LogMar
- Mean high contrast visual acuity [1, 14]: 0.09 LogMar
- Minimum high contrast visual acuity [1, 14]: −0.24 LogMar
- Maximum high contrast visual acuity [1, 15]: 0.22 LogMar
- Mean high contrast visual acuity [1, 15]: 0.11 LogMar
- Minimum high contrast visual acuity [1, 15]: −0.16 LogMar
- Maximum high contrast visual acuity [1, 16]: 0.26 LogMar
- Mean high contrast visual acuity [1, 16]: 0.12 LogMar
- Minimum high contrast visual acuity [1, 16]: −0.10 LogMar
- Maximum high contrast visual acuity [1, 17]: 0.30 LogMar
- Mean high contrast visual acuity [1, 17]: 0.12 LogMar
- Minimum high contrast visual acuity [1, 17]: −0.16 LogMar
- Maximum high contrast visual acuity [1, 18]: 0.30 LogMar
- Mean high contrast visual acuity [1, 18]: 0.12 LogMar
- Minimum high contrast visual acuity [1, 18]: −0.20 LogMar
- Maximum high contrast visual acuity [1, 19]: 0.30 LogMar
- Mean high contrast visual acuity [1, 19]: 0.13 LogMar
- Minimum high contrast visual acuity [1, 19]: −0.20 LogMar
- Maximum high contrast visual acuity [1, 20]: 0.22 LogMar
- Mean high contrast visual acuity [1, 20]: 0.06 LogMar
- Minimum high contrast visual acuity [1, 20]: −0.41 LogMar
- maximal mean increase in high contrast visual acuity ([1]; 0.8%, at 4 and 8 hours): 0.06 Log Mar
- improvement in high contrast vision ([1]; 0.8%, at 4 and 8 hours, equivalent of the maximal mean increase): ~3 letters on a Snellen chart

Source: patent publication US11000509B2, “Methods and compositions for daily ophthalmic administration of phentolamine to improve visual performance” (Ocuphire Pharma, Inc., priority 2013, dated 2021)
